Where “and” joins values, the source holds several entries; their conditions need not be identical. Identical values can stand only once. Like-named read-outs stand apart in the source and are kept apart here.
Columns and labels:
ScIleRS2 [1] = conditions: aminoacylation, with tRNA; cited from earlier work
SgIleRS2 = conditions: non-canonical motif; cited from earlier work
wt-ALHH DrIleRS2 = target: T1, wt-ALHH DrIleRS2 (Deinococcus radiodurans, UniProt Q9RUP8); assay: ATP-PPi exchange assay, mupirocin inhibition of amino acid activation; type: biochemical
T1 construct: hexa-histidine tag (pET28b(+)) (N); made in house; host or cells: E. coli BL21(DE3)
T1 sequence (Q9RUP8 whole entry): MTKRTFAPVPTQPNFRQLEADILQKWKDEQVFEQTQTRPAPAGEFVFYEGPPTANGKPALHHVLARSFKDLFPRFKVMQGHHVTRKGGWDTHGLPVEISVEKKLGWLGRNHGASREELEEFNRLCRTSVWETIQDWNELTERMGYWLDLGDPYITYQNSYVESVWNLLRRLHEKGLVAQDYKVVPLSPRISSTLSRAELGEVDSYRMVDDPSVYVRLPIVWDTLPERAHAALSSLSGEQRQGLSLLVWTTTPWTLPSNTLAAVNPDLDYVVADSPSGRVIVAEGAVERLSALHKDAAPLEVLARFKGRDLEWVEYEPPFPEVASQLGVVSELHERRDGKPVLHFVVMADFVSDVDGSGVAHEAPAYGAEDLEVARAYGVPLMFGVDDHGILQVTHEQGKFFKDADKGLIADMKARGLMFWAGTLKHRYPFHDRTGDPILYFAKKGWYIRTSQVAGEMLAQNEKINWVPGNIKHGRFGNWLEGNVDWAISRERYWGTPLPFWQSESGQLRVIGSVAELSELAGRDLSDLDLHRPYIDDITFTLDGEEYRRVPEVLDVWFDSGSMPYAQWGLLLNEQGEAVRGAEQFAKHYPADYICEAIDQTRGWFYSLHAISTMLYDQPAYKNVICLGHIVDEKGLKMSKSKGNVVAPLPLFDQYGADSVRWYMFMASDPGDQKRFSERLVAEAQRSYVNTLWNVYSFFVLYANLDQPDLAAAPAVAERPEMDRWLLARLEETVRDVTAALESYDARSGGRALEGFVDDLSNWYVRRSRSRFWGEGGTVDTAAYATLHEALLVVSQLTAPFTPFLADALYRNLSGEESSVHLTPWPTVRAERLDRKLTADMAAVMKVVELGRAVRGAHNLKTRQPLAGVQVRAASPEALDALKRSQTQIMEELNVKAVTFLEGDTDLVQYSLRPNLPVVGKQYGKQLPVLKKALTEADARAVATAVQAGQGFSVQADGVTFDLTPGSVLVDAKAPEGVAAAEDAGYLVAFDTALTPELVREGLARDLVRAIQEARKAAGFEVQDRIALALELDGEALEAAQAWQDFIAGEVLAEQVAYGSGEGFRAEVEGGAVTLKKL
Experimental: L-Ile and ATP concentrations ranged from 1/10 KM to 10 KM values. When measuring the KI towards one of the substrates, the other was held in saturation (concentrations at least 10 KM). The aliquots of the reaction mixture (1–2.5 μl) were quenched in 2 volumes of 500 mM NaOAc pH = 4.5, 0.1% SDS, and formed ^32P-ATP was separated from the remaining ^32P-PPi by thin-layer chromatography on Polygram CEL 300 PEI UV254 TLC plates (Macherey-Nagel, cat: 801063) using 750 mM KH2PO4 pH=3.5, 4 M urea buffer. Visualization and quantification of the signals was performed using a Typhoon Phosphoimager 5 (General Electric) and accompanying ImageQuant™ TL software (SV: 10.2). The kinetic constants were determined using a global fit option of the competitive inhibition model of GraphPad Prism 6 software (SV: 6.01). All experiments were performed in triplicates. The kcat was determined by dividing the maximal velocity, VM, with the used enzyme concentration. […]
variable substrate (ATP or Ile) was varied in the range of 0.1 KM to 10 KM. The other substrate (Ile or ATP) was kept in excess at 5 to 10 KM. Data were globally fitted to the competitive inhibition model using GraphPad prism 6.01 for Windows software. The values represent the average value ± SD of three independent experiments. Source data are provided as a Source Data file.

ScIleRS2 [2] = conditions: activation step, absence of tRNA; cited from earlier work

Structure (SMILES): C/C(=C\C(=O)OCCCCCCCCC(=O)O)C[C@@H]1OC[C@H](C[C@@H]2O[C@H]2[C@@H](C)[C@H](C)O)[C@@H](O)[C@H]1O [mupirocin]
- Ki (ScIleRS2 [1]): 0.015 mM
- Ki for mupirocin (SgIleRS2): mM range
- Ki (wt-ALHH DrIleRS2; amino acid activation assay, ATP as variable substrate, average ± SD of three independent experiments, read-out: KI (MUP)ATP): 7.7 ± 0.4 mM
- Ki (wt-ALHH DrIleRS2; amino acid activation step, ATP/PPi exchange assay, Ile varied, ATP saturating, average ± SD of three independent experiments, read-out: KI (MUP)Ile): 6.6 ± 0.4 mM
- mode of inhibition (wt-ALHH DrIleRS2; amino acid activation step, with respect to both Ile and ATP): classical competitive inhibition
- initial velocity vo (wt-ALHH DrIleRS2; c(mupirocin) 2.0 mM, c(Ile) 10.0 μM): 0.0067 mM/min and 0.00769 mM/min and 0.00782 mM/min
- initial velocity vo (wt-ALHH DrIleRS2; c(mupirocin) 2.0 mM, c(Ile) 20.0 μM): 0.01324 mM/min and 0.01288 mM/min and 0.01298 mM/min
- initial velocity vo (wt-ALHH DrIleRS2; c(mupirocin) 2.0 mM, c(Ile) 40.0 μM): 0.02028 mM/min and 0.02243 mM/min and 0.02046 mM/min
- initial velocity vo (wt-ALHH DrIleRS2; c(mupirocin) 5.0 mM, c(ATP) 1.0 mM): 0.03528 mM/min and 0.03566 mM/min and 0.03641 mM/min
- initial velocity vo (wt-ALHH DrIleRS2; c(mupirocin) 5.0 mM, c(ATP) 2.5 mM): 0.04751 mM/min and 0.04951 mM/min and 0.05105 mM/min
- initial velocity vo (wt-ALHH DrIleRS2; c(mupirocin) 5.0 mM, c(ATP) 5.0 mM): 0.05659 mM/min and 0.05544 mM/min and 0.05848 mM/min
- initial velocity vo (wt-ALHH DrIleRS2; c(mupirocin) 5.0 mM, c(ATP) 10.0 mM): 0.05987 mM/min and 0.05899 mM/min and 0.06477 mM/min
- initial velocity vo (wt-ALHH DrIleRS2; c(mupirocin) 5.0 mM, c(Ile) 10.0 μM): 0.00848 mM/min and 0.00805 mM/min and 0.00714 mM/min
- initial velocity vo (wt-ALHH DrIleRS2; c(mupirocin) 5.0 mM, c(Ile) 20.0 μM): 0.01178 mM/min and 0.01222 mM/min and 0.01149 mM/min
- initial velocity vo (wt-ALHH DrIleRS2; c(mupirocin) 5.0 mM, c(Ile) 40.0 μM): 0.01921 mM/min and 0.02111 mM/min and 0.01863 mM/min
- initial velocity vo (wt-ALHH DrIleRS2; c(mupirocin) 10.0 mM, c(ATP) 1.0 mM): 0.02957 mM/min and 0.02811 mM/min and 0.02952 mM/min
- initial velocity vo (wt-ALHH DrIleRS2; c(mupirocin) 10.0 mM, c(ATP) 2.5 mM): 0.04461 mM/min and 0.04583 mM/min and 0.04572 mM/min
- initial velocity vo (wt-ALHH DrIleRS2; c(mupirocin) 10.0 mM, c(ATP) 5.0 mM): 0.05427 mM/min and 0.05634 mM/min and 0.05619 mM/min
- initial velocity vo (wt-ALHH DrIleRS2; c(mupirocin) 10.0 mM, c(ATP) 10.0 mM): 0.06096 mM/min and 0.06226 mM/min and 0.06179 mM/min
- initial velocity vo (wt-ALHH DrIleRS2; c(mupirocin) 10.0 mM, c(Ile) 10.0 μM): 0.00446 mM/min and 0.00532 mM/min and 0.0043 mM/min
- initial velocity vo (wt-ALHH DrIleRS2; c(mupirocin) 10.0 mM, c(Ile) 20.0 μM): 0.0078 mM/min and 0.01029 mM/min and 0.0074 mM/min
- initial velocity vo (wt-ALHH DrIleRS2; c(mupirocin) 10.0 mM, c(Ile) 40.0 μM): 0.01449 mM/min and 0.016 mM/min and 0.01446 mM/min
- initial velocity vo (wt-ALHH DrIleRS2; c(mupirocin) 10.0 mM, c(Ile) 80.0 μM): 0.02234 mM/min and 0.02409 mM/min and 0.02227 mM/min
- initial velocity vo (wt-ALHH DrIleRS2; c(mupirocin) 15.0 mM, c(ATP) 1.0 mM): 0.02381 mM/min and 0.02402 mM/min and 0.0242 mM/min
- initial velocity vo (wt-ALHH DrIleRS2; c(mupirocin) 15.0 mM, c(ATP) 2.5 mM): 0.03988 mM/min and 0.03998 mM/min and 0.04105 mM/min
- initial velocity vo (wt-ALHH DrIleRS2; c(mupirocin) 15.0 mM, c(ATP) 5.0 mM): 0.05025 mM/min and 0.05034 mM/min and 0.05209 mM/min
- initial velocity vo (wt-ALHH DrIleRS2; c(mupirocin) 15.0 mM, c(ATP) 10.0 mM): 0.0561 mM/min and 0.05663 mM/min and 0.05737 mM/min
- initial velocity vo (wt-ALHH DrIleRS2; c(mupirocin) 20.0 mM, c(ATP) 1.0 mM): 0.02027 mM/min and 0.02047 mM/min and 0.01966 mM/min
- initial velocity vo (wt-ALHH DrIleRS2; c(mupirocin) 20.0 mM, c(ATP) 2.5 mM): 0.03606 mM/min and 0.03686 mM/min and 0.03693 mM/min
- initial velocity vo (wt-ALHH DrIleRS2; c(mupirocin) 20.0 mM, c(ATP) 5.0 mM): 0.04674 mM/min and 0.0476 mM/min and 0.04884 mM/min
- initial velocity vo (wt-ALHH DrIleRS2; c(mupirocin) 20.0 mM, c(ATP) 10.0 mM): 0.05461 mM/min and 0.05589 mM/min and 0.05542 mM/min
- initial velocity vo (wt-ALHH DrIleRS2; c(mupirocin) 25 mM, c(ATP) 1.0 mM): 0.01716 mM/min and 0.01763 mM/min and 0.01741 mM/min
- initial velocity vo (wt-ALHH DrIleRS2; c(mupirocin) 25 mM, c(ATP) 2.5 mM): 0.03106 mM/min and 0.033 mM/min and 0.02877 mM/min
- initial velocity vo (wt-ALHH DrIleRS2; c(mupirocin) 25 mM, c(ATP) 5.0 mM): 0.0424 mM/min and 0.04408 mM/min and 0.04201 mM/min
- initial velocity vo (wt-ALHH DrIleRS2; c(mupirocin) 25 mM, c(ATP) 10.0 mM): 0.05204 mM/min and 0.0507 mM/min and 0.05392 mM/min
- initial velocity vo (wt-ALHH DrIleRS2; c(mupirocin) 25.0 mM, c(Ile) 10.0 μM): 0.003 mM/min and 0.0032 mM/min and 0.00312 mM/min
- initial velocity vo (wt-ALHH DrIleRS2; c(mupirocin) 25.0 mM, c(Ile) 20.0 μM): 0.0036 mM/min and 0.0044 mM/min and 0.00399 mM/min
- initial velocity vo (wt-ALHH DrIleRS2; c(mupirocin) 25.0 mM, c(Ile) 40.0 μM): 0.0074 mM/min and 0.0071 mM/min and 0.00814 mM/min
- initial velocity vo (wt-ALHH DrIleRS2; c(mupirocin) 25.0 mM, c(Ile) 80.0 μM): 0.0137 mM/min
- Ki (wt-ALHH DrIleRS2; mupirocin inhibition towards Ile, GraphPad Prism output, Repl1-Repl3, read-out: KI, single replicates): 7.22 mM and 6.75 mM and 5.95 mM
- Ki (ScIleRS2 [2]): 0.0086 mM

— article PMC10485003, “Antibiotic hyper-resistance in a class I aminoacyl-tRNA synthetase with altered active site signature motif” (Nature Communications, 2023)
